Measured values: paper PMC3513969 (Evidence-based Complementary and Alternative Medicine : eCAM, 2012)

Columns and labels:
CYP1A2 = target: T1, CYP1A2 (Homo sapiens, UniProt P05177); test: Inhibition of CYP1A2 activity in human liver microsomes (acetaminophen/phenacetin ratio); type: biochemical; settings: extracts as lovastatin concentration, mean ± SEM, 3-4 preparations
T1 construct: Human liver microsomes (UltraPool HLM 150) were purchased from BD Biosciences; tissue BD Biosciences UltraPool HLM 150; host or cells: pooled human liver microsomes
T1 sequence (P05177 1-516): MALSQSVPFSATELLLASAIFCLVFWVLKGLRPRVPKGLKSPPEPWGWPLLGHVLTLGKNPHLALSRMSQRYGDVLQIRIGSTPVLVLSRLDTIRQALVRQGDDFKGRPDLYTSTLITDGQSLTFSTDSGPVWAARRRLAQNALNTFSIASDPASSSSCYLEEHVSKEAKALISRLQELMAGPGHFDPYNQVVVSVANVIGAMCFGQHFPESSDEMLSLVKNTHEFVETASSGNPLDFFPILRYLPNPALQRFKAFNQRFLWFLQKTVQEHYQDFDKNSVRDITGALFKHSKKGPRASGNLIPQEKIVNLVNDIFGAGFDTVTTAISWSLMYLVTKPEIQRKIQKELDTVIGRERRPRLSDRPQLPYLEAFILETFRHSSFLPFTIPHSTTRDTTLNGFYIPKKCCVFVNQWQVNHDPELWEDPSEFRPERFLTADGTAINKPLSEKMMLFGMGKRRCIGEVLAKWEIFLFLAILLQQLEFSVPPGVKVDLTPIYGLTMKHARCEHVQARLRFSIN

CYP2B6 = target: T2, CYP2B6 (Homo sapiens, UniProt P20813); test: Inhibition of CYP2B6 activity in human liver microsomes (hydroxybupropion/bupropion ratio); type: biochemical
T2 construct: Human liver microsomes (UltraPool HLM 150) were purchased from BD Biosciences; tissue BD Biosciences UltraPool HLM 150; host or cells: pooled human liver microsomes
T2 sequence (P20813 1-491): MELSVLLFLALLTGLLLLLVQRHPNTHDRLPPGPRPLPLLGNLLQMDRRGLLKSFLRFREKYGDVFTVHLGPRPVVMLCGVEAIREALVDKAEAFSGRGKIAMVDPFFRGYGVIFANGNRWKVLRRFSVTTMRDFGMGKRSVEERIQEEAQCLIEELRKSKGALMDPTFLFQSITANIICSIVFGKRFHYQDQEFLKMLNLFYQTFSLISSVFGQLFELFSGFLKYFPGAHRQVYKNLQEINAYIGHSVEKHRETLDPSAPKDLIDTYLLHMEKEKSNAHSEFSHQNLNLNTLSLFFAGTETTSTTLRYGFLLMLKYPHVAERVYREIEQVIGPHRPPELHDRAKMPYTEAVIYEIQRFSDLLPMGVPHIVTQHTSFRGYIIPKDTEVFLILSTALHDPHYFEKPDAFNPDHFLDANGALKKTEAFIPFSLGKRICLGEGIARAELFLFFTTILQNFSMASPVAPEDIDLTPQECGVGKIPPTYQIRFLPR

CYP2D6 = target: T3, CYP2D6 (Homo sapiens, UniProt P10635); test: Inhibition of CYP2D6 activity in human liver microsomes (dextrorphan/dextromethorphan ratio); type: biochemical
T3 construct: Human liver microsomes (UltraPool HLM 150) were purchased from BD Biosciences; tissue BD Biosciences UltraPool HLM 150; host or cells: pooled human liver microsomes

[1] = Pharmacokinetic interaction between gemfibrozil and LipoCol Forte; type: in vivo, human
Protocol: The volunteers were fasted overnight before dosing and a high fat breakfast or dinner was served 0.5 h after administration of gemfibrozil. […] Blood samples were prepared as described in the previous section (dose-escalation study).

[2] = Single dose escalation and multiple dosing pharmacokinetic study of LipoCol Forte; settings: for CL/F / AUC(0-t) / AUC(0-inf) / Cmax / MRT / half-life / Tmax / Vd/F: fed, mean ± SD, n = 14; for AUC(0-t) / AUC(0-inf) / Cmax / MRT / half-life / Tmax / Vd/F: human, plasma, oral; for AUC(0-t): AUC0–12, healthy subjects; for AUC(0-inf): AUC0–inf; for half-life: T1/2, healthy subjects
Protocol: A high fat breakfast (including two eggs fried in butter, two strips of bacon, two slices of toast with butter, four ounces of hash brown potatoes, and eight ounces of whole milk) was provided 30 min before dosing. All doses were administered with 240 mL of water. […] A high fat breakfast or dinner was served 30 min before dosing. One capsule was administered with 240 mL of water. […] Within 30 min of collection, the samples were centrifuged at 2,600 g for 10 minutes at 4°C and the plasma transferred to labeled polypropylene tubes containing 50 μL of 17% phosphoric acid and stored at −80°C until analysis.
The pharmacokinetics were characterized, when appropriate, by the peak concentration in the plasma (C max⁡), time to reach the peak concentration (T max⁡), area under the plasma concentration versus time curve from time zero to the time of the last quantifiable concentration (AUC0−t), AUC from time zero to the time extrapolated to infinity (AUC0−inf⁡), half-life (T 1/2), mean residence time (MRT), apparent clearance (CL/F), and apparent volume of distribution (V d/F).

[3] = healthy subjects, single dose one LipoCol Forte capsule with coadministration of 600 mg gemfibrozil twice daily, mean ± SD, n = 13
[4] = human, plasma, oral, 1 LipoCol Forte capsule
[5] = 1 LipoCol Forte capsule, multiple doses one LipoCol Forte capsule BID for 5 days
[6] = 1 LipoCol Forte capsule, single dose one LipoCol Forte capsule
[7] = 1 LipoCol Forte capsule, healthy subjects, multiple doses one LipoCol Forte capsule BID for 5 days
[8] = 1 LipoCol Forte capsule, healthy subjects, single dose one LipoCol Forte capsule
[9] = 2 LipoCol Forte capsules, single dose two LipoCol Forte capsules
[10] = 2 LipoCol Forte capsules, healthy subjects, single dose two LipoCol Forte capsules
[11] = 4 LipoCol Forte capsules, single dose four LipoCol Forte capsules
[12] = 4 LipoCol Forte capsules, healthy subjects, single dose four LipoCol Forte capsules

T3 sequence (P10635 whole entry): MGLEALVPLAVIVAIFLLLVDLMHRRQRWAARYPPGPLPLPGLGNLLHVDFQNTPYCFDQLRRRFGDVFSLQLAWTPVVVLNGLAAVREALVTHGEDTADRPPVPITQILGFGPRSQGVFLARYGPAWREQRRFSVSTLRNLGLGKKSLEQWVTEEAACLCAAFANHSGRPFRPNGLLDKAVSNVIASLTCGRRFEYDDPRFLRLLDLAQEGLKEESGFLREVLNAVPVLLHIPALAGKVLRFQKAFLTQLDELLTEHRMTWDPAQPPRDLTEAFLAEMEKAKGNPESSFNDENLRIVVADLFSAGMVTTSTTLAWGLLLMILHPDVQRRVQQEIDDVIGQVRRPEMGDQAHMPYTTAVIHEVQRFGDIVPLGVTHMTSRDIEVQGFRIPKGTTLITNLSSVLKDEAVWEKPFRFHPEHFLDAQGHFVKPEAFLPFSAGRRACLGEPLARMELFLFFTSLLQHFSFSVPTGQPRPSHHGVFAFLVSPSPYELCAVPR

## CC[C@H](C)C(=O)O[C@H]1C[C@@H](C)C=C2C=C[C@H](C)[C@H](CC[C@@H]3C[C@@H](O)CC(=O)O3)[C@H]21 [Pure lovastatin, lovastatin, reference compound]
CYP1A2
  IC50: > 100 µM
CYP2B6
  IC50: 15 ± 1.11 µM
CYP2B6; human, human liver microsomes, probe bupropion
  IC50 at 20 min: 9 to 16 µM
CYP2D6
  IC50: > 50 µM
[1]; healthy subjects, one LipoCol Forte capsule, gemfibrozil 600 mg twice daily
  Effect of concomitant gemfibrozil on pharmacokinetic parameters (AUC, Cmax): no significant effects
[1]; healthy subjects, single dose one LipoCol Forte capsule alone, mean ± SD, n = 13
  CL/F: 1374.0 ± 782.6 L/h
[1]; [3]
  CL/F: 1372.5 ± 763.8 L/h
  Tmax: 3.00 ± 1.37 h
[1]; [4]
  AUC(0-inf): 5.68 ± 3.48 ng·h/mL
  Cmax: 1.53 ± 1.45 ng/mL
  MRT: 4.87 ± 1.28 h
  Vd/F: 4000 ± 2600 L
  half-life: 2.12 ± 0.7 h
[1]; human, plasma, oral, 1 LipoCol Forte capsule, read-out: AUC0–12
  AUC(0-t): 5 ± 3.29 ng·h/mL
[1]; human, plasma, oral, 1 LipoCol Forte capsule, read-out: Tmax
  Tmax: 3.08 ± 1.17 h
[2]; healthy subjects, multiple doses one LipoCol Forte capsule BID for 5 days
  CL/F: 1339.5 ± 763.3 L/h
[2]; healthy subjects, single dose four LipoCol Forte capsules
  CL/F: 1128.8 ± 624.4 L/h
[2]; healthy subjects, single dose one LipoCol Forte capsule
  CL/F: 941.7 ± 453.5 L/h
[2]; healthy subjects, single dose two LipoCol Forte capsules
  CL/F: 994.5 ± 548.8 L/h
[2]; healthy subjects, one LipoCol Forte capsule twice daily for 5 days
  Accumulation with multiple dosing: no accumulation
[2]; healthy subjects, single dose of 1, 2 or 4 LipoCol Forte capsules
  Dose linearity of pharmacokinetic properties (AUC, Cmax): linear
[2]; [5]
  AUC(0-t): 5.22 ± 2.6 ng·h/mL
  half-life: 1.93 ± 0.43 h
[2]; [6]
  AUC(0-t): 6.74 ± 3.27 ng·h/mL
  half-life: 2.36 ± 0.66 h
[2]; [7]
  AUC(0-inf): 5.71 ± 2.68 ng·h/mL
  Cmax: 1.41 ± 0.69 ng/mL
  MRT: 4.81 ± 1.24 h
  Tmax: 3.39 ± 1.38 h
  Vd/F: 3570 ± 1800 L
[2]; [8]
  AUC(0-inf): 7.47 ± 3.44 ng·h/mL
  Cmax: 1.61 ± 0.8 ng/mL
  MRT: 5.55 ± 1.98 h
  Tmax: 3.46 ± 1.28 h
  Vd/F: 3080 ± 1330 L
[2]; [9]
  AUC(0-t): 13.4 ± 6.07 ng·h/mL
  half-life: 2.36 ± 0.68 h
[2]; [10]
  AUC(0-inf): 14.4 ± 6.3 ng·h/mL
  Cmax: 3.36 ± 1.81 ng/mL
  MRT: 5.27 ± 1.42 h
  Tmax: 3.29 ± 1.35 h
  Vd/F: 3380 ± 2050 L
[2]; [11]
  AUC(0-t): 24.9 ± 14.2 ng·h/mL
  half-life: 2.42 ± 0.45 h
[2]; [12]
  AUC(0-inf): 26.8 ± 15.4 ng·h/mL
  Cmax: 5.7 ± 3.42 ng/mL
  MRT: 5.51 ± 1.11 h
  Tmax: 3.25 ± 0.78 h
  Vd/F: 3860 ± 1960 L
